This is an account of results in patent US20260042764A1, “COMPOSITIONS AND METHODS FOR INHIBITION OF KRAS” (TheRas, Inc., priority 2022, published 2026).

The target in experiment [1] is T1, Avi-KRAS G12V (2-169) GTP/RAF1 RBD-3xFLAG (51-131) (Homo sapiens, UniProt P01116, G12V).
T1 construct: Avi-KRAS G12V (2-169)
In words: Raf1-KRAS G12V-GTP disruption HTRF assay (Biological Example 3). It is filed as binding. Particulars: KRAS G12V, GTP-loaded. A digest of the protocol: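 Compounds were titrated 10-point, 3-fold from 30 μM against preformed KRAS-GTP:RAF1 RBD (51-131) complexes at 50 nM, using KRAS 2-169 as WT, G12C, G12D or G12V. After 1 h at room temperature in Tris pH 7.5 buffer with MgCl2 and 10% DMSO, time-resolved fluorescence was read. Results are percent activity versus DMSO.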

Experiment [2] has as its target T2, Avi-KRAS G12R (1-169) GppNHp/RAF1 RBD-3xFLAG (52-151) (Homo sapiens, UniProt P01116, G12R).
T2 construct: Avi-KRAS G12R (1-169)
In words: Raf1-KRAS G12R-GppNHP disruption HTRF assay (Biological Example 1). Particulars: KRAS G12R-GppNHp/RAF1 RBD HTRF. It counts as binding. The procedure, abridged:
(§1)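 Measured with a KRAS/RAF1 HTRF assay at pH 7.5 in 10% DMSO, with two 1 h room-temperature incubations with shaking.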

In experiment [3] the target is T3, Avi-KRAS WT (1-169) GppNHp/RAF1 RBD-3xFLAG (52-151) (Homo sapiens, UniProt P01116).
T3 construct: Avi-KRAS WT (1-169)
In words: Raf1-KRAS WT-GppNHP disruption HTRF assay (Biological Example 1). It is filed as binding. The following applies: KRAS WT-GppNHp/RAF1 RBD HTRF. A digest of the protocol: as §1
Background: TR-FRET usually uses a lanthanide donor and a delayed reading to cut background.

Experiment [4] relates to GP2d cells (KRAS G12D). In words: Cell-based pERK HTRF assay in GP2d cell (Biological Example 2). The following applies: GP2d (KRAS G12D) cells. The procedure, abridged:
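Cells grown in DMEM with 10% FBS were exposed to compound for 60 min at 0.25% DMSO, using a 9-point half-log series starting at 1 μM or 100 nM. Lysates were then mixed with d2 and Eu cryptate antibodies for 4–24 h at room temperature, and pERK was read by HTRF.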

The target in experiment [5] is T4, Avi-KRAS G12D (1-169) GppNHp/RAF1 RBD-3xFLAG (52-151) (Homo sapiens, UniProt P01116, G12D).
T4 construct: Avi-KRAS G12D (1-169)
In words: Raf1-KRAS G12D-GppNHP disruption HTRF assay (Biological Example 1). It counts as binding. The following applies: KRAS G12D-GppNHp/RAF1 RBD HTRF. The procedure, abridged: as §1

As usually defined, the IC50 is the point on the concentration scale where inhibition reaches its midpoint. Low readings indicate greater potency in that assay, high ones weaker potency in that assay.

T4 sequence (P01116 1-169 isoform P01116-2 G12D): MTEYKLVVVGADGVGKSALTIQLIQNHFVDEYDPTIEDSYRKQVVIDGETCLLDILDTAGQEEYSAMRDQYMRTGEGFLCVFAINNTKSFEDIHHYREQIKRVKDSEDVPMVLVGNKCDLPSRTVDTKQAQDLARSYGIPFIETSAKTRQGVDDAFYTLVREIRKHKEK
T1 sequence (P01116 2-169 isoform P01116-2 G12V): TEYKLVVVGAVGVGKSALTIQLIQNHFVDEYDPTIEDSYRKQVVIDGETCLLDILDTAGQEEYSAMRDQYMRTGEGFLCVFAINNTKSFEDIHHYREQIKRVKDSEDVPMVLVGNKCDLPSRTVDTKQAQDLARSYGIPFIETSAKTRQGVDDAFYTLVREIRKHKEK
T2 sequence (P01116 1-169 isoform P01116-2 G12R): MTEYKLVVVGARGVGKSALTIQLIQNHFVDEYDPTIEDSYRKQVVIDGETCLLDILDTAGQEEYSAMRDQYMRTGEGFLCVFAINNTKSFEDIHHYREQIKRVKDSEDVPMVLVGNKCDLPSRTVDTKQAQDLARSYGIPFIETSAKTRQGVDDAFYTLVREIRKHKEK
T3 sequence (P01116 1-169 isoform P01116-2): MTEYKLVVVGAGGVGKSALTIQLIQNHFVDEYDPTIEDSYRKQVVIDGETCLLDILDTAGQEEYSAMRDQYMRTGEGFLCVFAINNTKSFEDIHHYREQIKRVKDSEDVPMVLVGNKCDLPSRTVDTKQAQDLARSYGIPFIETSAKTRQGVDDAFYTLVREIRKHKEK

For the compound `N#Cc1c(N)sc2c(F)ccc(-c3c(C(F)(F)F)cc4c(N5CCCC[C@@H](O)C5)nc(OC[C@@]56CCCN5C[C@H](F)C6)nc4c3F)c12` [Compound 286], the IC50 in experiment [1] was 100 to 1000 nM; in experiment [2], less than 100 nM; in experiment [3] it was less than 100 nM; in experiment [4] (GP2d), less than 100 nM; in experiment [4] (GP2d, pERK HTRF) it was less than 100 nM; in experiment [5] it was less than 100 nM.
Turning to `CC(=O)N1CC(N(C)c2nc(OCC34CCCN3CC(F)C4)nc3c(F)c(-c4ccc(F)c5sc(N)c(C#N)c45)c(C(F)(F)F)cc23)CC1C` (stereo not drawn) [Compound 291], the IC50 is 100 to 1000 nM in experiment [1]; 100 to 1000 nM in experiment [2]; 100 to 1000 nM in experiment [3]; less than 100 nM in experiment [4]; less than 100 nM in experiment [4] (pERK HTRF); 100 to 1000 nM in experiment [5].
On to `CC(=O)N1C[C@H](N(C)c2nc(OC[C@@]34CCCN3C[C@H](F)C4)nc3c(F)c(-c4ccc(F)c5sc(N)c(C#N)c45)c(C(F)(F)F)cc23)C[C@@H]1C` [Compound 298], for which the IC50 in experiment [1] was 100 to 1000 nM; in experiment [2] it was 100 to 1000 nM; in experiment [3], 100 to 1000 nM; in experiment [4] (GP2d) it was less than 100 nM; in experiment [4] (GP2d, pERK HTRF), less than 100 nM; in experiment [5], 100 to 1000 nM.
On to `CCC(=O)N1CC[C@@H](N(CC)c2nc(OC[C@@]34CCCN3C[C@H](F)C4)nc3c(F)c(-c4ccc(F)c5sc(N)c(C#N)c45)c(C(F)(F)F)cc23)C1` [Compound 327], for which the concentration for half-maximal inhibition (IC50) in experiment [1] is 100 to 1000 nM; in experiment [2] it was 100 to 1000 nM; in experiment [3], 100 to 1000 nM; in experiment [4] (GP2d), less than 100 nM; in experiment [4] (GP2d, pERK HTRF), less than 100 nM; in experiment [5], 100 to 1000 nM.
Take `CCN(c1nc(OC[C@@]23CCCN2C[C@H](F)C3)nc2c(F)c(-c3ccc(F)c4sc(N)c(C#N)c34)c(C(F)(F)F)cc12)[C@@H]1CCN(C(=O)C(C)C)C1` [Compound 328]: the half-inhibitory concentration (IC50) was 1000 to 10000 nM in experiment [1]; 100 to 1000 nM in experiment [2]; 100 to 1000 nM in experiment [3]; less than 100 nM in experiment [4] (GP2d); less than 100 nM in experiment [4] (GP2d, pERK HTRF); 100 to 1000 nM in experiment [5].
Regarding `CCN(c1nc(OC[C@@]23CCCN2C[C@H](F)C3)nc2c(F)c(-c3ccc(F)c4sc(N)c(C#N)c34)c(C(F)(F)F)cc12)[C@@H]1CCN(C(=O)C2CC2)C1` [Compound 329], the IC50 in experiment [1] is 100 to 1000 nM; in experiment [2], 100 to 1000 nM; in experiment [3], 100 to 1000 nM; in experiment [4] (GP2d), less than 100 nM; in experiment [4] (GP2d, pERK HTRF) it was less than 100 nM; in experiment [5] it was 100 to 1000 nM.
On to `CCN(c1nc(OC[C@@]23CCCN2C[C@H](F)C3)nc2c(F)c(-c3ccc(F)c4sc(N)c(C#N)c34)c(C(F)(F)F)cc12)[C@H]1CCN(C(=O)C2CC2)C1` [Compound 331], for which the half-maximal inhibitory concentration (IC50) in experiment [1] was 100 to 1000 nM; in experiment [2], less than 100 nM; in experiment [3], 100 to 1000 nM; in experiment [4] (GP2d), less than 100 nM; in experiment [4] (GP2d, pERK HTRF) it was less than 100 nM; in experiment [5], less than 100 nM.
Consider `CCN(c1nc(OC[C@@]23CCCN2C[C@H](F)C3)nc2c(F)c(-c3ccc(F)c4sc(N)c(C#N)c34)c(C(F)(F)F)cc12)[C@H]1CCN(C(=O)C(C)C)C1` [Compound 332], for which the concentration for half-maximal inhibition (IC50) in experiment [1] was 100 to 1000 nM; in experiment [2], less than 100 nM; in experiment [3] it was less than 100 nM; in experiment [4] (GP2d), less than 100 nM; in experiment [4] (GP2d, pERK HTRF), less than 100 nM; in experiment [5], less than 100 nM.
As to `CN(C)C(=O)c1cc2n(n1)CCN(c1nc(OC[C@@]34CCCN3C[C@H](F)C4)nc3c(F)c(-c4ccc(F)c5sc(N)c(C#N)c45)c(C(F)(F)F)cc13)C2` [Compound 355], the IC50 in experiment [1] was 100 to 1000 nM; in experiment [2] it was 100 to 1000 nM; in experiment [3] it was 100 to 1000 nM; in experiment [4] (GP2d), less than 100 nM; in experiment [4] (GP2d, pERK HTRF) it was less than 100 nM; in experiment [5], 100 to 1000 nM.
